Measured values taken from paper PMC3669624 (Molecular Cancer, 2013).
Where two headings read alike, the source gives them in different places.

Columns and labels:
[1] = tested on: 5637; experiment: Cell anti-proliferative effect (MTT test); type: cell-based; conditions: Homo sapiens, 48 h, read-out: EC50 antiproliferative effect
Description: (§1) UMUC-3, 5637, TCC sup cells and J82 (ATCC, Manassas, VA, USA), derived from human transitional cell carcinoma of the bladder, were routinely cultured in MEM supplemented with 10% fetal bovine serum, 2 mM glutamine, 100 U/mL penicillin, 100 μg/mL streptomycin, 1X NEAA and 1 mM sodium pyruvate. All components were purchased form Invitrogen Corportion (Cergy Pontoise, France), in a humidified incubator at 37°C with a 5% CO2 atmosphere. Caco-2 (IRCCS “S. De Bellis”, Castellana Grotte, Italy), MDCK-MDR1, MDCK-MRP1 (gift of Prof. P. Borst, NKI-AVL Institute, Amsterdam, Netherlands) and MDCK-BCRP cells (gift of Dr. A. Schinkel, NKI-AVL Institute, Amsterdam, Netherlands) were grown in DMEM medium with 10% heat-inactivated fetal calf serum, 100 U/mL penicillin, 100 μg/mL streptomycin and 2 mM L-glutamine (Invitrogen) in a humidified incubator at 37°C with a 5% CO2 atmosphere. The cells were trypsinized twice a week with trypsin/ethylenediaminetetraacetic acid (EDTA) (0.05%/0.02%) and the medium was changed twice a week.
(§2) Afterwords, 10 μl of 3-[4,5-dimethylthiazol-2-yl]-2,5-diphenyltetrazoliumbromide (MTT) freshly prepared solution (5 mg/ml in PBS) (Sigma) was added in each well, and the plate was incubated in a humidified atmosphere 5% CO2 at 37° for 3–4 h. MTT solution was removed and 200 μL of EtOH/DMSO (1:1) was added to each well to dissolve the blue formazan solid crystals. The optical density was measured at 570 nm and 650 nm wavelenghts using Victor3 (PerkinElmer, Waltham, MA, USA). The results are expressed as EC50 values, obtained from non-linear iterative curve fitting by Prism v.3.0, GraphPad software (GraphPad Software, Inc. San Diego, USA).

[2] = tested on: J82; experiment: Cell anti-proliferative effect (MTT test); type: cell-based; conditions: Homo sapiens, read-out: EC50 antiproliferative effect
Description: as §1, §2

[3] = tested on: TCC sup; experiment: Cell anti-proliferative effect (MTT test); type: cell-based; conditions: Homo sapiens, 48 h, read-out: EC50 antiproliferative effect
Description: as §1, §2

[4] = tested on: UMUC3; experiment: Cell anti-proliferative effect (MTT test); type: cell-based; conditions: Homo sapiens, read-out: EC50 antiproliferative effect
Description: as §1, §2

[5] = tested on: 5637 si-CX; experiment: Cell anti-proliferative effect (MTT test); type: cell-based; conditions: Homo sapiens, 48 h, read-out: EC50 antiproliferative effect
Description: UMUC-3, 5637, TCC sup cells and J82 (ATCC, Manassas, VA, USA), derived from human transitional cell carcinoma of the bladder, were routinely cultured in MEM supplemented with 10% fetal bovine serum, 2 mM glutamine, 100 U/mL penicillin, 100 μg/mL streptomycin, 1X NEAA and 1 mM sodium pyruvate. All components were purchased form Invitrogen Corportion (Cergy Pontoise, France), in a humidified incubator at 37°C with a 5% CO2 atmosphere. Caco-2 (IRCCS “S. De Bellis”, Castellana Grotte, Italy), MDCK-MDR1, MDCK-MRP1 (gift of Prof. P. Borst, NKI-AVL Institute, Amsterdam, Netherlands) and MDCK-BCRP cells (gift of Dr. A. Schinkel, NKI-AVL Institute, Amsterdam, Netherlands) were grown in DMEM medium with 10% heat-inactivated fetal calf serum, 100 U/mL penicillin, 100 μg/mL streptomycin and 2 mM L-glutamine (Invitrogen) in a humidified incubator at 37°C with a 5% CO2 atmosphere. […]
as §2, with “MTT solution was removed and 200 μL of EtOH/DMSO (1:1) was added to each well to dissolve the blue formazan solid crystals.” left out

[6] = tested on: UMUC-3- CX; experiment: Cell anti-proliferative effect (MTT test); type: cell-based, human; conditions: for EC50: Homo sapiens, read-out: EC50 antiproliferative effect
Description: as §1
The pSG5-COX-2 plasmid, which contains a full-length human COX-2 cDNA in the pSG expression vector [23], was used for COX-2 transfection. The plasmid DNA was introduced into UMUC-3 cells using Lipofectamine LTX (Invitrogen). Briefly, 2.5 μg of plasmid DNA and 6.25 μl of Lipofectamine LTX were combined in 500 μl of OpTI-MEM*I reduced serum medium (Invitrogen) and allowed to stand at room temperature for 30 minutes. UMUC-3 cells were plated at 1X105 cells/well in six-well plates. After overnight attachment, the Lipofectamine mixture was applied to cells. After 5 hours of transfection, the medium was removed and complete medium was added. After 48 hours, geneticin G418 (Invitrogen) was added to cells at a concentration of […]. Cell lines were obtained from individual colonies using cloning cylinders. UMUC-3-CX overexpressing cells were obtained and were continuously cultured in complete medium with the addition of 800 μg/ml G418.
as §2

[7] = target: P-gp (Homo sapiens, UniProt P08183); experiment: Drug transport experiment, Caco-2 monolayer apparent permeability; type: in vitro ADME
P-gp, sequence (P08183 whole entry): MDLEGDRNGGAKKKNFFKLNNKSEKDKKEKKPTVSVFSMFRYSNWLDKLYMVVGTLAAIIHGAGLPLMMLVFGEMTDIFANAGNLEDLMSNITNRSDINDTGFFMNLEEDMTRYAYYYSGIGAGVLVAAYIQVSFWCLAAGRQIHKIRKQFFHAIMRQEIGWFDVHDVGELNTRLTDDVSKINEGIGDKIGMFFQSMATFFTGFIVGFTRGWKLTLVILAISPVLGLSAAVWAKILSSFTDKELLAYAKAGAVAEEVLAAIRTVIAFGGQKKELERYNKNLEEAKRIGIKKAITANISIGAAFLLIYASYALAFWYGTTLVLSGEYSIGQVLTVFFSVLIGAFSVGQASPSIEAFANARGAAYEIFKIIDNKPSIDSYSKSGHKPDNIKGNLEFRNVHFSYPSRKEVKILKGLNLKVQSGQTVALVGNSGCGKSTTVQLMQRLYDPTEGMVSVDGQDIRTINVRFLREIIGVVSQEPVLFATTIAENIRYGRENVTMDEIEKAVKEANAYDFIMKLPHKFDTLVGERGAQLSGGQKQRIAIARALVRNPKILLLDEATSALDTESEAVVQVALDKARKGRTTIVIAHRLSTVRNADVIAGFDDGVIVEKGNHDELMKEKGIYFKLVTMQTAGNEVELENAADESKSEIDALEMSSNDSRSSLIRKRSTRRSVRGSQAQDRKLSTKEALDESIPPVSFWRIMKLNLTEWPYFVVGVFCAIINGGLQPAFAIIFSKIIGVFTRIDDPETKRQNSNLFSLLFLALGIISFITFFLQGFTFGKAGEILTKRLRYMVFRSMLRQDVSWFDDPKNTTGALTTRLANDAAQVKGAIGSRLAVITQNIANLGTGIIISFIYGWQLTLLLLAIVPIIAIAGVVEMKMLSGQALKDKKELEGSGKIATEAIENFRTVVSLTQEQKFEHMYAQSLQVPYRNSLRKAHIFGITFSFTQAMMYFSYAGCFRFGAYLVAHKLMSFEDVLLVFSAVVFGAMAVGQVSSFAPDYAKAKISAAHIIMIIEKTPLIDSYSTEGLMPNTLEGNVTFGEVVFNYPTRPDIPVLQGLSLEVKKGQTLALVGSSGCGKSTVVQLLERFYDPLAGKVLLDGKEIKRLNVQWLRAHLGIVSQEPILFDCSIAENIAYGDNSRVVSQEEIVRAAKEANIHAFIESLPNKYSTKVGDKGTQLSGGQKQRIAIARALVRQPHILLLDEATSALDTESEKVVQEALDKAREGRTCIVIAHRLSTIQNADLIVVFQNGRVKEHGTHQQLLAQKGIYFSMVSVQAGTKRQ

[8] = target: T1, BCRP (Homo sapiens, UniProt Q9UNQ0); experiment: cell-based
T1 sequence (Q9UNQ0 1-655): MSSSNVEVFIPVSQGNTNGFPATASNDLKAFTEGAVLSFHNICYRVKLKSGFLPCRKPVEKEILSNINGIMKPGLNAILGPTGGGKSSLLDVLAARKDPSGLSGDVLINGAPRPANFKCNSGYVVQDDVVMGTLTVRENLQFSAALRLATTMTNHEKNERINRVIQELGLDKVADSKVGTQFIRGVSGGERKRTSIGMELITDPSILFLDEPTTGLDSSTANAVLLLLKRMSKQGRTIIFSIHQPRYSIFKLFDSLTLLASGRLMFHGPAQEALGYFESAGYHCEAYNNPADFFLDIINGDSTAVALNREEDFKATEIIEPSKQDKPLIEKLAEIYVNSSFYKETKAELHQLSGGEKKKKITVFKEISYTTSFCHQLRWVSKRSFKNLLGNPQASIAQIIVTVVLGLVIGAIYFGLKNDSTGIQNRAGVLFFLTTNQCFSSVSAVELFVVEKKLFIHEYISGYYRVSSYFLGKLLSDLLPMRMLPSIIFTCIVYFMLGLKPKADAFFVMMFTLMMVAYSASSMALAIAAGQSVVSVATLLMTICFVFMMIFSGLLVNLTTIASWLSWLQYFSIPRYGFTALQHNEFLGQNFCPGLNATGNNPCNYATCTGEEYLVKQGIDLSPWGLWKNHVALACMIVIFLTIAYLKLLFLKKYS
Description: (§4) The method was adapted from Eneroth et al. [27] and Korjamo et al. [28] with minor modifications. Briefly, each cell line was seeded into a black Cultureplate (PerkinElmer) 96/wells plate with 100 μl medium and allowed to become confluent overnight. Test compounds were solubilized in 100 μl of culture medium and added. […] In treated wells the increase of fluorescence as compared to basal level was measured. The half maximal effective concentration (EC50) values were determined by fitting the fluorescence increase percentage versus log[dose]

[9] = target: MRP1 (Homo sapiens, UniProt P33527); experiment: cell-based
MRP1, sequence (P33527 whole entry): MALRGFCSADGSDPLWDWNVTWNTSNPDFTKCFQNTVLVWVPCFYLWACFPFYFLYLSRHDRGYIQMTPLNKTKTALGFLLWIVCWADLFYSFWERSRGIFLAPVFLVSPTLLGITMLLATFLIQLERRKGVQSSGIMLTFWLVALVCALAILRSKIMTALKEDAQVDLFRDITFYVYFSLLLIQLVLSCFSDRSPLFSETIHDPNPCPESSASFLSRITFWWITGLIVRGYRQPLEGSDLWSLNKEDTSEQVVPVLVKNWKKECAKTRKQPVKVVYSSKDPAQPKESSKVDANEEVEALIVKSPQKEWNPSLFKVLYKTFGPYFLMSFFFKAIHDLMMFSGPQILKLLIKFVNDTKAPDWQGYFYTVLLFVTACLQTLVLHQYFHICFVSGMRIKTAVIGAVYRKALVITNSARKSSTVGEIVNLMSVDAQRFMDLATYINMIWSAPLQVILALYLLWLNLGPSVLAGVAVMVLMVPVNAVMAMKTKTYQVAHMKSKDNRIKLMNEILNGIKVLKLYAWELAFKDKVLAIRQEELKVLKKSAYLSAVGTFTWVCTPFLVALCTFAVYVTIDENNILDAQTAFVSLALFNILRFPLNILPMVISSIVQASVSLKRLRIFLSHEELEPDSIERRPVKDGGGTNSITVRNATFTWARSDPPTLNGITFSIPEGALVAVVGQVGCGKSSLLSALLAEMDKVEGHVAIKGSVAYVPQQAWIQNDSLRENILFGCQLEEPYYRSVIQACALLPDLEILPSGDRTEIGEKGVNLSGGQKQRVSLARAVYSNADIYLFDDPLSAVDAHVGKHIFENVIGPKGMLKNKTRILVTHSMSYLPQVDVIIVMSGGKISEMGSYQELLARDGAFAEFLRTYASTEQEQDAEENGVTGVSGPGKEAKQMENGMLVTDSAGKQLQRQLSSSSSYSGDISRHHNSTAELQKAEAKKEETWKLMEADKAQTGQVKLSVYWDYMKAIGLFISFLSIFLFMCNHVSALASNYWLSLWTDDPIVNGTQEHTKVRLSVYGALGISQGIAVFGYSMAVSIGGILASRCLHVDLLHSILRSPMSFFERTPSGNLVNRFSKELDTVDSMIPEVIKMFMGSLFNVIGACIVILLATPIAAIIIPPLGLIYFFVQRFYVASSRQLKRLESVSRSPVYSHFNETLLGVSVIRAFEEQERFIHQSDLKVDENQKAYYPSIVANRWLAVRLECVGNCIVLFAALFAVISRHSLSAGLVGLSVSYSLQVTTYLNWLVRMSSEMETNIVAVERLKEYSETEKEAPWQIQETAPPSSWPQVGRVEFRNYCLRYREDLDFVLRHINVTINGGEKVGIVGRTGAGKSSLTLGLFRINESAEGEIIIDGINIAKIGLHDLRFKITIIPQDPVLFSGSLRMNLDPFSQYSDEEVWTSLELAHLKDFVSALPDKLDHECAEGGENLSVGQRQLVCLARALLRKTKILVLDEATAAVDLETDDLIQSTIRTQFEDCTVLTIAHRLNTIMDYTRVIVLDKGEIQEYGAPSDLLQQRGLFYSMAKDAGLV
Description: as §4

[10] = tested on: Caco-2 cells; experiment: Cell ATP availability assay; type: cell-based
Description: Caco-2 cells were seeded into 96-well microplate in 100 μL of complete medium at a density 2×10^4 cells/well. The plate was incubated O/N in a humidified atmosphere (5% CO2 at 37°C). The medium was removed and 100 μL of complete medium were added, in the presence or absence of different concentrations of test compounds. The plate was again incubated for 2 h in a humidified atmosphere. Then, 50 μl of mammalian cell lysis solution were added to all wells and the plate stirred for 5 min in an orbital shaker. In all wells, 50 μl of substrate solution were added, and the plate stirred for 5 min as above reported. The plate was dark adapted for 10 min and the luminescence measured in Victor3 (PerkinElmer) [26].

[11] = tested on: UMUC-3-CX cells; experiment: Intracellular mitomycin C accumulation (flow cytometry); type: cell-based, human; conditions: 1 day celecoxib then 1 day MMC and celecoxib
Description: (§3) After incubation, the cell medium was removed and trypsin/EDTA was used to detach the cells from the plates. Cells were harvested, washed twice in ice-cold PBS (pH 7.4), and placed on ice (<1 hour) until analysis. Analysis was performed using a 530/30 filter (FL1-H [height of fluorescence intensity]). Fluorescence measurements of individual cells were done with a Becton Dickinson FACScan equipped with an […] argon laser. Analysis was gated to include single cells, based on forward and side light scatter, and was based on the acquisition of data from 10,000 cells.

[12] = tested on: UMUC-3 cells; experiment: as above; type: cell-based, human; conditions: UMUC-3, 1 day celecoxib then 1 day MMC and celecoxib
Description: as §3

**Q.** `CO[C@@]12[C@H](COC(N)=O)C3=C(C(=O)C(C)=C(N)C3=O)N1C[C@@H]1N[C@@H]12` [Mitomycin C] was tested. Which EC50 ([1]; 5637, compound alone) did it give?
**A.** 0.93 ± 0.04 µM

**Q.** What about the EC50 ([2]; J82, compound alone, 48 h) of the same molecule?
**A.** 0.64 ± 0.09 µM

**Q.** And the EC50 ([3]; TCC sup, compound alone)?
**A.** 0.83 ± 0.07 µM

**Q.** And the EC50 ([4]; UMUC3, compound alone, 48 h)?
**A.** 1.69 ± 0.09 µM

**Q.** And the EC50 ([5]; 5637 si-CX, compound alone)?
**A.** 0.62 ± 0.05 µM

**Q.** What about the EC50 ([6]; UMUC3, UMUC-3-CX, compound alone, 48 h) of the same molecule?
**A.** 13 ± 1 µM

**Q.** And the “Fold improvement of MMC anti-proliferative activity by co-administration of celecoxib compared to MMC alone” value ([6]; UMUC-3-CX, celecoxib 1 μM, 5 μM and 10 μM, 48 h, listed as MMC)?
**A.** 2–3 fold

**Q.** And the “Anti-proliferative effect of MMC alone, fold greater in UMUC-3 than in UMUC-3-CX” value ([6]; UMUC-3 versus UMUC-3-CX, 48 h)?
**A.** 8 fold

**Q.** For `Cc1ccc(-c2cc(C(F)(F)F)nn2-c2ccc(S(N)(=O)=O)cc2)cc1` [Celecoxib, celecoxib], which “Classification of P-gp interaction (Polli's classification)” value ([7]; from drug transport, substrate transport inhibition and ATP cell depletion assays combined) is on record?
**A.** P-gp unambiguous substrate

**Q.** And the Papp A→B at 120 min, 100 µM ([7]; human, Caco-2 monolayer, apical-basolateral flux, 120 min)?
**A.** 13.7 ×10⁻⁶ cm/s

**Q.** What about the Papp B→A at 120 min, 100 µM ([7]; human, Caco-2 monolayer, basolateral-apical flux, 120 min) of the same molecule?
**A.** 103 ×10⁻⁶ cm/s

**Q.** What about the EC50 [1] of the same molecule?
**A.** > 50 µM

**Q.** And the EC50 ([2]; J82, 48 h)?
**A.** 11.6 ± 0.31 µM

**Q.** What about the EC50 ([3]; TCC-SUP) of the same molecule?
**A.** 15.7 ± 0.5 µM

**Q.** And the EC50 ([4]; UMUC3, 48 h)?
**A.** 14.2 ± 0.7 µM

**Q.** And the EC50 [8]?
**A.** 24.1 ± 1.2 µM

**Q.** What about the EC50 [5] of the same molecule?
**A.** > 50 µM

**Q.** And the EC50 ([6]; UMUC3, 48 h)?
**A.** 16.3 ± 0.8 µM

**Q.** What about the EC50 [9] of the same molecule?
**A.** 10.1 ± 0.5 µM

**Q.** And the ATP cell depletion [10]?
**A.** decreased ATP levels in a time- and dose-dependent fashion

**Q.** What about the “Effect on MMC intracellular accumulation” value [11] of the same molecule?
**A.** increase of intracellular MMC concentration

**Q.** And the “Effect on MMC intracellular accumulation” value [12]?
**A.** not seen
